Values of other authors in PMC5129521 (Diabetes, Obesity & Metabolism, 2016).

Details: mice

CCCCCCCCCCCCCCCC(=O)N[C@@H](CCC(=O)NCCCC[C@H](NC(=O)[C@H](C)NC(=O)[C@H](C)NC(=O)[C@H](CCC(N)=O)NC(=O)CNC(=O)[C@H](CCC(=O)O)NC(=O)[C@H](CC(C)C)NC(=O)[C@H](Cc1ccc(O)cc1)NC(=O)[C@H](CO)NC(=O)[C@H](CO)NC(=O)[C@@H](NC(=O)[C@H](CC(=O)O)NC(=O)[C@H](CO)NC(=O)[C@@H](NC(=O)[C@H](Cc1ccccc1)NC(=O)[C@@H](NC(=O)CNC(=O)[C@H](CCC(=O)O)NC(=O)[C@H](C)NC(=O)[C@@H](N)Cc1cnc[nH]1)[C@@H](C)O)[C@@H](C)O)C(C)C)C(=O)N[C@@H](CCC(=O)O)C(=O)N[C@@H](Cc1ccccc1)C(=O)N[C@H](C(=O)N[C@@H](C)C(=O)N[C@@H](Cc1c[nH]c2ccccc12)C(=O)N[C@@H](CC(C)C)C(=O)N[C@H](C(=O)N[C@@H](CCCNC(=N)N)C(=O)NCC(=O)N[C@@H](CCCNC(=N)N)C(=O)NCC(=O)O)C(C)C)[C@@H](C)CC)C(=O)O [Liraglutide]
Terminal plasma half‐life: ~7 h
